Experimental data published in PMC5535168 (Toxins, 2017).
Several values for one entry are separate records, joined by “and”; a condition that tells them apart may be missing. Equal entries are not always repeated. Where two headings read alike, the source gives them in different places. Where a SMILES comes first, the peptide text is derived from it. Where no end group is shown, it is not given here. The star is where a group is joined. Biotin = O=C1N[C@H]2[C@H](CS[C@H]2CCCCC(=O)*)N1

Experiments:
mAb AVR1675 = assay type: binding, mouse
AVR1675 mAb = assay type: binding, mouse
[1] = target: AVR1675 (LFG2 3F3:3D10 IgG1 kappa) (mouse); test: ELISA
AVR1675 (LFG2 3F3:3D10 IgG1 kappa) (mouse), sequence (heavy, as listed by the source): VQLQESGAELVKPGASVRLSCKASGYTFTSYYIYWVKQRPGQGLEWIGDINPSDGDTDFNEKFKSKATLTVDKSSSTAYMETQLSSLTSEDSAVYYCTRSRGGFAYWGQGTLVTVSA

## CC[C@H](C)[C@H](NC(=O)[C@H](CCC(=O)O)NC(=O)[C@H](CC(=O)O)NC(=O)[C@H](CCC(N)=O)NC(=O)[C@H](Cc1c[nH]cn1)NC(=O)[C@@H](N)[C@@H](C)O)C(=O)N[C@@H](Cc1ccc(O)cc1)C(=O)N[C@@H](CCC(=O)O)C(=O)N[C@@H](CCC(N)=O)C(=O)N[C@@H](CCCCNC(=O)CCCC[C@@H]1SC[C@@H]2NC(=O)N[C@@H]21)C(=O)O [Native LF core sequence] (H-THQDEIYEQK(Biotin)-OH)
mAb AVR1675
  % R of Consensus: 14%
  Response (nm): 0.7024 nm
mAb AVR1675; read-out: KD (M) *
  Kd: > 1e-07 M

## CC[C@H](C)[C@H](NC(=O)[C@H](CC(N)=O)NC(=O)[C@@H]1CCCN1)C(=O)N[C@@H](C)C(=O)N[C@@H](CCC(=O)O)C(=O)N[C@@H](CCC(N)=O)C(=O)N[C@@H](Cc1ccc(O)cc1)C(=O)N[C@H](C(=O)N[C@@H](Cc1c[nH]cn1)C(=O)N[C@@H](CCC(N)=O)C(=O)N[C@@H](CC(=O)O)C(=O)N[C@@H](CCC(=O)O)C(=O)N[C@H](C(=O)N[C@@H](Cc1ccc(O)cc1)C(=O)N[C@@H](CCC(=O)O)C(=O)N[C@@H](CCC(N)=O)C(=O)N[C@H](C(=O)N[C@@H](Cc1c[nH]cn1)C(=O)N[C@@H](CO)C(=O)N[C@@H](CCCCN)C(=O)NCC(=O)N[C@@H](CC(C)C)C(=O)N[C@@H](Cc1ccc(O)cc1)C(=O)N[C@H](C(=O)N1CCC[C@H]1C(=O)N[C@@H](CCC(=O)O)C(=O)N[C@@H](CO)C(=O)N[C@@H](CCCNC(=N)N)C(=O)NCC(=O)NCC(=O)NCC(=O)N[C@@H](CO)C(=O)N[C@@H](CCCCNC(=O)CCCC[C@@H]1SC[C@@H]2NC(=O)N[C@@H]21)C(=O)O)C(C)C)C(C)C)[C@@H](C)CC)[C@@H](C)O [Native LF extended sequence]
mAb AVR1675
  % R of Consensus: 14%
  Response (nm): 0.7024 nm
mAb AVR1675; read-out: KD (M) *
  Kd: > 1e-07 M

## CC[C@H](C)[C@H](NC(=O)[C@H](CCC(=O)O)NC(=O)[C@H](CC(=O)O)NC(=O)[C@H](CCCCN)NC(=O)[C@H](Cc1ccccc1)NC(=O)[C@@H](N)[C@@H](C)O)C(=O)NCC(=O)NCC(=O)NCC(=O)N[C@@H](CO)C(=O)N[C@@H](CCCCNC(=O)CCCC[C@@H]1SC[C@@H]2NC(=O)N[C@@H]21)C(=O)O [φC8-derived Reference Sequence] (H-TFKDEIGGGSK(Biotin)-OH; N-terminus and C-terminus assumed)
mAb AVR1675
  % R of Consensus: 100%
  Binding relative to the LF-sequence derived oligopeptides: seven-fold higher binding
  R (binding response, running text): 4.84 nm
  Response (nm): 4.8387 nm
mAb AVR1675; read-out: KD (M) *
  Kd: 1.39e-08 M
mAb AVR1675; read-out: KD (equilibrium affinity constant)
  Kd: 9.97e-09 M

## TVRD D Q I [φD7]
AVR1675 mAb
  Phage ELISA Reactivity (class): High (OD 1.78) (key: High = OD > 1.0; Intermediate = OD 0.5–1.0; Low = OD < 0.5)

## TVRD EP L [φE12]
AVR1675 mAb
  Phage ELISA Reactivity (class): High (OD 1.70) (key: High = OD > 1.0; Intermediate = OD 0.5–1.0; Low = OD < 0.5)

## TFKDDIHGGGS (not fully specified) [phage-displayed peptide T-F-K-D-D-I-H (phage clone φC9)]
[1]
  OD (phage ELISA reactivity): 1.33 OD

## TFLDDAPGGGS (not fully specified) [phage-displayed peptide T-F-L-D-D-A-P (phage clone φE2)]
[1]
  OD (phage ELISA reactivity): 1.22 OD

## TYLDDLYGGGS (not fully specified) [phage-displayed peptide T-Y-L-D-D-L-Y (phage clones φB6 and φD11)]
[1]
  OD (phage ELISA reactivity): 1.77 OD and 1.7 OD

## TVRDEPLGGGS (not fully specified) [phage-displayed peptide T-V-R-D-E-P-L (phage clone φE12)]
[1]
  OD (phage ELISA reactivity): 1.7 OD

## TFKDDGYGGGS (not fully specified) [phage-displayed peptide T-F-K-D-D-G-Y (phage clone φD4)]
[1]
  OD (phage ELISA reactivity): 0.08 OD

## TVRDDQIGGGS (not fully specified) [phage-displayed peptide T-V-R-D-D-Q-I (phage clone φD7)]
[1]
  OD (phage ELISA reactivity): 1.78 OD

## TFKDDLFGGGS (not fully specified) [phage-displayed peptide T-F-K-D-D-L-F (phage clone φC7)]
[1]
  OD (phage ELISA reactivity): 1.56 OD

## TFRDEPMGGGS (not fully specified) [phage-displayed peptide T-F-R-D-E-P-M (phage clone φB9)]
[1]
  OD (phage ELISA reactivity): 1.71 OD

## TYRDDPPGGGS (not fully specified) [phage-displayed peptide T-Y-R-D-D-P-P (phage clone φE5)]
[1]
  OD (phage ELISA reactivity): 1.55 OD

## TYKDDIRGGGS (not fully specified) [phage-displayed peptide T-Y-K-D-D-I-R (phage clones φB5 and φD2)]
[1]
  OD (phage ELISA reactivity): 1.65 OD and 1.78 OD

## TVLDDVAGGGS (not fully specified) [phage-displayed peptide T-V-L-D-D-V-A (phage clone φC2)]
[1]
  OD (phage ELISA reactivity): 0.36 OD

## TWRDDIPGGGS (not fully specified) [phage-displayed peptide T-W-R-D-D-I-P (phage clone φD8)]
[1]
  OD (phage ELISA reactivity): 0.79 OD
